Measurements reported in ChEMBL document CHEMBL5331135, “Design, Synthesis, and Evaluation of Glucose Transporter Inhibitor-SN38 Conjugates for Targeting Colorectal Cancer” (J Med Chem, 2023).
Calls of active or inactive are those of the source. The calls are words filed in the database; no cut-off is given here.

Legend:
[1] = Toxicity in AOM/DSS-induced orthotopic CRC BALB/c mouse model assessed as lesions in spleen at 13 mg/kg, iv administered once every 2 days for 2 weeks by H&E staining based analysis; type: organism-based; details: in vivo, 336 h
HCT-116 [2] = assay: Cytotoxicity against human HCT-116 cells incubated for 48 hrs in presence of SN38 by SRB assay; type: functional, cell-based; details: HCT-116, 48 h
[3] = Toxicity in AOM/DSS-induced orthotopic CRC BALB/c mouse model assessed as lesions in heart at 13 mg/kg, iv administered once every 2 days for 2 weeks by H&E staining based analysis; type: organism-based; details: in vivo, 336 h
COLO 205 [4] = assay: Cytotoxicity against human COLO 205 cells incubated for 48 hrs in presence of SN38 by SRB assay; type: functional, cell-based; details: COLO 205, 48 h
[5] = Antitumor activity against AOM/DSS-induced orthotopic CRC BALB/c mouse model assessed as reduction in tumor area at 13 mg/kg, iv administered once every 2 days for 2 weeks in presence of SN38 by dissecting microscopic analysis relative to control; type: functional, Colorectal cancer cell; parameters: scale not given: the % may be the effect or the level left
[6] = Toxicity in AOM/DSS-induced orthotopic CRC BALB/c mouse model assessed as lesions in liver at 13 mg/kg, iv administered once every 2 days for 2 weeks by H&E staining based analysis; type: organism-based; details: in vivo, 336 h
[7] = Toxicity in AOM/DSS-induced orthotopic CRC BALB/c mouse model assessed as lesions in stomach at 13 mg/kg, iv administered once every 2 days for 2 weeks by H&E staining based analysis; type: organism-based; details: in vivo, 336 h
COLO 205 [8] = assay: Cytotoxicity against human COLO 205 cells incubated for 48 hrs by SRB assay; type: functional, cell-based; details: COLO 205, 48 h
[9] = Toxicity in AOM/DSS-induced orthotopic CRC BALB/c mouse model assessed as lesions in lung at 13 mg/kg, iv administered once every 2 days for 2 weeks by H&E staining based analysis; type: organism-based; details: in vivo, 336 h
[10] = Toxicity in AOM/DSS-induced orthotopic CRC BALB/c mouse model assessed as body weight loss at 13 mg/kg, iv administered once every 2 days for 2 weeks; type: organism-based; details: in vivo, 336 h
HT-29 [11] = assay: Cytotoxicity against human HT-29 cells incubated for 48 hrs in presence of SN38 by SRB assay; type: functional, cell-based; details: HT-29, 48 h
[12] = Toxicity in AOM/DSS-induced orthotopic CRC BALB/c mouse model assessed as lesions in kidney at 13 mg/kg, iv administered once every 2 days for 2 weeks by H&E staining based analysis; type: organism-based; details: in vivo, 336 h
[13] = Toxicity in AOM/DSS-induced orthotopic CRC BALB/c mouse model assessed as body weight loss at 14 mg/kg, ip administered every other day for 2 weeks in presence of Irinotecan; type: organism-based; details: in vivo, 336 h
[14] = Antitumor activity against AOM/DSS-induced orthotopic CRC BALB/c mouse model assessed as reduction in tumor area at 13 mg/kg, iv administered once every 2 days for 2 weeks by dissecting microscopic analysis relative to control; type: functional, Colorectal cancer cell; parameters: scale not given: the % may be the effect or the level left
[15] = Stability in human plasma assessed as half life by RP-HPLC analysis; type: ADME, cell-free
HCT-116 [16] = assay: Cytotoxicity against human HCT-116 cells incubated for 48 hrs by SRB assay; type: functional, cell-based; details: HCT-116, 48 h
HT-29 [17] = assay: Cytotoxicity against human HT-29 cells incubated for 48 hrs by SRB assay; type: functional, cell-based; details: HT-29, 48 h
[18] = Stability in human plasma assessed as formation of carboxylate product measured for 72 hrs by RP-HPLC analysis; type: ADME, cell-free
[19] = Drug uptake in human COLO 205 cells assessed as drug internalization in presence of 4.5 g/L glucose by fluorescence based assay; type: ADME, cell-based
[20] = Toxicity in AOM/DSS-induced orthotopic CRC BALB/c mouse model assessed as lesions in liver at 20 to 40 mg/kg, iv administered once every 2 days for 2 weeks by H&E staining based analysis; type: organism-based; details: in vivo, 336 h, dose 20-40 mg/kg
[21] = Toxicity in AOM/DSS-induced orthotopic CRC BALB/c mouse model assessed as body weight loss at 40 mg/kg, iv administered once every 2 days for 2 weeks; type: organism-based; details: in vivo, 336 h
[22] = Toxicity in AOM/DSS-induced orthotopic CRC BALB/c mouse model assessed as lesions in stomach at 20 to 40 mg/kg, iv administered once every 2 days for 2 weeks by H&E staining based analysis; type: organism-based; details: in vivo, 336 h, dose 20-40 mg/kg
[23] = Toxicity in AOM/DSS-induced orthotopic CRC BALB/c mouse model assessed as lesions in spleen at 20 to 40 mg/kg, iv administered once every 2 days for 2 weeks by H&E staining based analysis; type: organism-based; details: in vivo, 336 h, dose 20-40 mg/kg
[24] = Toxicity in AOM/DSS-induced orthotopic CRC BALB/c mouse model assessed as lesions in kidney at 20 to 40 mg/kg, iv administered once every 2 days for 2 weeks by H&E staining based analysis; type: organism-based; details: in vivo, 336 h, dose 20-40 mg/kg
[25] = Antitumor activity against AOM/DSS-induced orthotopic CRC BALB/c mouse model assessed as tumor growth inhibition at 40 mg/kg, iv administered once every 2 days for 2 weeks in presence of SGLT inhibitor by dissecting microscopic analysis relative to control; type: functional, Colorectal cancer cell; parameters: scale not given: the % may be the effect or the level left
[26] = Toxicity in AOM/DSS-induced orthotopic CRC BALB/c mouse model assessed as lesions in heart at 20 to 40 mg/kg, iv administered once every 2 days for 2 weeks by H&E staining based analysis; type: organism-based; details: in vivo, 336 h, dose 20-40 mg/kg
[27] = Antitumor activity against AOM/DSS-induced orthotopic CRC BALB/c mouse model assessed as tumor growth inhibition at 20 mg/kg, iv administered once every 2 days for 2 weeks in presence of SGLT inhibitor by dissecting microscopic analysis relative to control; type: functional, Colorectal cancer cell; parameters: scale not given: the % may be the effect or the level left
[28] = Toxicity in AOM/DSS-induced orthotopic CRC BALB/c mouse model assessed as lesions in lung at 20 to 40 mg/kg, iv administered once every 2 days for 2 weeks by H&E staining based analysis; type: organism-based; details: in vivo, 336 h, dose 20-40 mg/kg
Colorectal cancer cell = assay: Antitumor activity against AOM/DSS-induced orthotopic CRC BALB/c mouse model assessed as reduction in tumor area at 20 mg/kg, ip administered every other day for 2 weeks by dissecting microscopic analysis; type: functional, organism-based
[29] = Prodrug conversion in tumor of BALB/c mouse assessed as SN38 release at 20 mg/kg, ip measured after 4 hrs by UHPLC-MS/MS analysis; type: ADME, organism-based, Neoplasm; details: in vivo
[30] = Drug uptake in plasma of BALB/c mouse at 20 mg/kg, ip measured after 3 hrs by UHPLC-MS/MS analysis; type: ADME, organism-based; details: in vivo
[31] = Prodrug conversion in stomach of BALB/c mouse assessed as SN38 release at 20 mg/kg, ip measured after 4 hrs by UHPLC-MS/MS analysis; type: ADME, organism-based; details: in vivo
[32] = Biodistribution in gastrointestinal tract of BALB/c mouse at 20 mg/kg, ip measured after 4 hrs by UHPLC-MS/MS analysis; type: ADME, organism-based; details: in vivo
[33] = Biodistribution in colorectal tumor site of BALB/c mouse at 20 mg/kg, ip measured after 4 hrs by UHPLC-MS/MS analysis; type: ADME, organism-based, Neoplasm; details: in vivo
[34] = Prodrug conversion in kidney of BALB/c mouse assessed as SN38 release at 20 mg/kg, ip measured after 4 hrs by UHPLC-MS/MS analysis; type: ADME, organism-based; details: in vivo
[35] = Prodrug conversion in intestine of BALB/c mouse assessed as SN38 release at 20 mg/kg, ip measured after 4 hrs by UHPLC-MS/MS analysis; type: ADME, organism-based; details: in vivo
[36] = Toxicity in AOM/DSS-induced orthotopic CRC BALB/c mouse model assessed as body weight loss at 20 mg/kg, ip administered every other day for 2 weeks; type: organism-based; details: in vivo, 336 h
[37] = Prodrug conversion in spleen of BALB/c mouse assessed as SN38 release at 20 mg/kg, ip measured after 4 hrs by UHPLC-MS/MS analysis; type: ADME, organism-based; details: in vivo
[38] = Prodrug conversion in liver of BALB/c mouse assessed as SN38 release at 20 mg/kg, ip measured after 4 hrs by UHPLC-MS/MS analysis; type: ADME, organism-based; details: in vivo
[39] = Prodrug conversion in lung of BALB/c mouse assessed as SN38 release at 20 mg/kg, ip measured after 4 hrs by UHPLC-MS/MS analysis; type: ADME, organism-based; details: in vivo
[40] = Prodrug conversion in brain of BALB/c mouse assessed as SN38 release at 20 mg/kg, ip measured after 4 hrs by UHPLC-MS/MS analysis; type: ADME, organism-based; details: in vivo
[41] = Prodrug conversion in heart of BALB/c mouse assessed as SN38 release at 20 mg/kg, ip measured after 4 hrs by UHPLC-MS/MS analysis; type: ADME, organism-based; details: in vivo

O=C(CCc1ccc(O)cc1)c1c(O)cc(OCCOCCOCCS)cc1O
Activity [1]: Non-Toxic
IC50 (HCT-116 [2]): 56.5 nM
Activity [3]: Non-Toxic
IC50 (COLO 205 [4]): 150 nM
Activity [5]: 55%
Activity [6]: Non-Toxic
Activity [7]: Non-Toxic
IC50 (COLO 205 [8]): > 100000 nM
Activity [9]: Non-Toxic
Activity [10]: Non-Toxic
IC50 (HT-29 [11]): 360 nM
Activity [12]: Non-Toxic
Activity [13]: Non-Toxic
Activity [14]: 35%

CCc1c2c(nc3ccc(OC(=O)OCCSSCCOCCOCCOc4cc(O)c(C(=O)CCc5ccc(O)cc5)c(O[C@@H]5O[C@H](CO)[C@@H](O)[C@H](O)[C@H]5O)c4)cc13)-c1cc3c(c(=O)n1C2)COC(=O)[C@]3(O)CC
half-life [15]: 20 min
IC50 (HCT-116 [16]): 42.3 nM
IC50 (COLO 205 [8]): 640 nM
IC50 (HT-29 [17]): 510 nM

CCc1c2c(nc3ccc(OCc4ccc(NC(=O)[C@H](CCCNC(N)=O)NC(=O)[C@@H](NC(=O)CCCCN5C(=O)CC(SCCOCCOCCOc6cc(O)c(C(=O)CCc7ccc(O)cc7)c(O[C@@H]7O[C@H](CO)[C@@H](O)[C@H](O)[C@H]7O)c6)C5=O)C(C)C)cc4)cc13)-c1cc3c(c(=O)n1C2)COC(=O)[C@]3(O)CC (some centres not stated)
Stability [18]: Stable
Drug uptake [19]: Active
Activity [20]: Non-Toxic
Activity [21]: Non-Toxic
Activity [22]: Non-Toxic
Activity [23]: Non-Toxic
half-life [15]: 2160 min
Activity [24]: Non-Toxic
IC50 (HCT-116 [16]): 3250 nM
IC50 (COLO 205 [8]): 15400 nM
Activity [25]: 55%
Activity [26]: Non-Toxic
Activity [27]: 45%
IC50 (HT-29 [17]): > 100000 nM
Activity [28]: Non-Toxic

CCc1c2c(nc3ccc(OC(=O)OCCSSCCOCCOCCOc4cc(O)c(C(=O)CCc5ccc(O)cc5)c(O)c4)cc13)-c1cc3c(c(=O)n1C2)COC(=O)[C@]3(O)CC
Drug uptake [19]: Active
Activity (Colorectal cancer cell): Active
Drug metabolism [29]: Metabolite_Detected
Drug uptake [30]: Not Active
Drug metabolism [31]: Metabolite_Detected
Drug uptake [32]: Active
Drug uptake [33]: Active
half-life [15]: 50 min
Drug metabolism [34]: Metabolite_Detected
IC50 (HCT-116 [16]): 34.1 nM
IC50 (COLO 205 [8]): 570 nM
Drug metabolism [35]: Metabolite_Detected
Activity [36]: Non-Toxic
Drug metabolism [37]: Metabolite_Detected
Drug metabolism [38]: Metabolite_Detected
Drug metabolism [39]: Metabolite_Detected
IC50 (HT-29 [17]): 310 nM
Drug metabolism [40]: Metabolite_Detected
Drug metabolism [41]: Metabolite_Detected
